Values quoted from earlier work in US20260034185A1, “POLYPODYIUM LEUCOTOMOS AND LARIX DECIDUA FOR USE IN THE PREVENTION OF DAMAGE FROM UVA, UVB, UVC AND/OR IR RAYS” (Unifarco S.p.A., priority 2022, published 2026).

Molecular target: T1, caspase-1 (Homo sapiens, UniProt P29466)
T1 construct: literature Promega G9951
T1 sequence (P29466 120-297 limits assumed): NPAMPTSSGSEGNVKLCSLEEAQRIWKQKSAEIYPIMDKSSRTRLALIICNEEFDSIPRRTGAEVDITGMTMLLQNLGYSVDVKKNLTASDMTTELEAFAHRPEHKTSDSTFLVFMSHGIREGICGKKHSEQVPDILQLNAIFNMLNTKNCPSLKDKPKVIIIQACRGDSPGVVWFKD
T1 sequence (P29466 317-404 limits assumed): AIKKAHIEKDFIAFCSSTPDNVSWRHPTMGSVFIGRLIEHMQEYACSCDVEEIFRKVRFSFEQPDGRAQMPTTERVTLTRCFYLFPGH
Conditions: inhibitor included in the Caspase-Glo 1 kit; does not substantially inhibit cross-reactive caspases

Substance: Ac-YVAD-CHO
- inhibition of caspase-1 activity: 99%
